Target: T1, h FPR2 (Homo sapiens, UniProt P25090)
T1 construct: expressed in transfected cells
T1 sequence (P25090 1-351): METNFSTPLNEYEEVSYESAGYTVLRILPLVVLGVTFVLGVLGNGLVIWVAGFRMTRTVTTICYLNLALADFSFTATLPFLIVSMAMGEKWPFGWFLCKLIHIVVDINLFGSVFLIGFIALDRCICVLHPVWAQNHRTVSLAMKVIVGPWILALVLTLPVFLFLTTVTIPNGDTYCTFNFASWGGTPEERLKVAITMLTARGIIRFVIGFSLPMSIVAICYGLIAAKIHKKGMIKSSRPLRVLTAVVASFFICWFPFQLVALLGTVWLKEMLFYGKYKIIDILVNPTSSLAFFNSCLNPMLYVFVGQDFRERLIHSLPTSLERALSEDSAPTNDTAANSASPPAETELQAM
Experiment: Agonistic activity in hFPR2-Aq-CHO cells (FLIPR Calcium 5 fluorescence assay)
Assay type: cell-based
Conditions: for EC50: 11 point half log dilution, final assay concentration from 10µM
Description: After washing, the cells are plated at 10,000 cells per well in 40 µL complete medium in a 384-well sterile clear bottom black plate and incubated in a 5% CO2 incubator at 37°C for 18 hours. Plating media is removed from each well by decanting and gentle tapping before 30 µL of 0.5X Calcium 5 dye solution (0.5X FLIPR Calcium 5 dye (Molecular devices, R8186)); HBSS; 20mM HEPES; 2.5mM Probenecid; 0.025% Pluronic F-127; pH adjusted to 7.4) is added to each well and the plate is then incubated at 37°C for 30 minutes. For the assay the plate is equilibrated at room temperature for 10 minutes before placing it in the FLIPR. Compounds are dissolved in DMSO and serially diluted over an 11 point half log (3.16 fold) dilution (2 mM to 20 nM). Compounds are then diluted 1:50 in assay buffer (HBSS; 20mM HEPES; 2.5mM Probenecid; 0.05% gelatin; 0.1% BSA; pH adjusted to 7.4) just before performing the assay. Compounds are finally added to the respective wells of the cell plate (final assay concentration 10 µM to 100 pM) using the FLIPR (e.g. FLIPR-Tetra, Molecular Devices) and fluorescence readings are captured for 5 minutes. The increase in fluorescence from the basal reading in the presence of the compounds is compared with that of the control wells (wells having no compound) to calculate the activity of the compounds. The EC50 values of the compounds can be determined using e.g. Graph pad Prism software.
Assay method for measuring agonistic activity of compounds in hFPR2-Aq-CHO cell
Cryo-vial containing 6x10^6 cells (hFPR1-Gα15-CHO or hFPR2-Aq-CHO) was thawed in a 37°C water bath. Cells were suspended in 10ml of respective complete growth media (F12(1X)HAM media (Gibco; Cat#11765); 10% HI-FBS (Gibco; Cat#10082); 0.4 mg/ml Geneticin (Gibco; Cat#10131); 0.25 mg/ml Zeocin (Invitrogen; Cat#R25001)) in a 15ml centrifuge tube. The cell viability was checked with the help of Trypan Blue dye. Upon washing the cells, those were plated in a 384-well sterile clear bottom black plate (Greiner Bioone Cat# 781091) so that, each well contained 10,000 cells in 40µl complete growth media. The plate was incubated in a 5% CO2 incubator at 37°C for 18 hours. Before assay on the next day, the cell plating media was removed from each well of the plate by decanting and gentle tapping. 30µl of 0.5X Calcium 5 dye solution (0.5X FLIPR Calcium 5 dye (Molecular devices Cat# R8186); HBSS (Invitrogen; Cat#14025); 20mM HEPES (Sigma; Cat#H0887); 2.5mM Probenecid (Sigma; Cat#P8761); 0.025% Pluronic F-127 (Sigma; Cat#P2443); pH adjusted to 7.4) was added to each well. The plate was then incubated at 37°C for 30 minutes. Following which the plate was equilibrated at room temperature for 10 minutes before placing it in a 384 well FLIPR for assay. Compounds were dissolved in DMSO and serially diluted following 11 point half log (3.16 fold) dilution with a starting concentration of 2mM (Final assay concentration 10µM). Aliquots of above mentioned each dilution was mixed with assay buffer (HBSS (Invitrogen; Cat#14025); 20mM HEPES (Sigma; Cat#H0887); 2.5mM Probenecid (Sigma; Cat#P8761); 0.05% gelatin (Sigma; Cat#G1890); 0.1% BSA (Sigma; Cat#A3059); pH adjusted to 7.4) just before performing the assay. Compounds were added to the respective wells of the assay ready cell plate with the help of the FLIPR (FLIPR Tetra) and fluorescence readings were captured for 5 minutes to measure any agonistic response of the compounds. The increase in fluorescence readings from the basal reading in presence of the compounds were compared with that of the control wells (wells having no compound) to calculate the agonistic activity of the compounds. The EC50 values of the compounds were determined using the Graph pad Prism software.

Row | EC50 [nM] | activation at 0.1 µM (agonistic response at 0.1µM) [%] | SMILES
1 | 0.06 | – | COc1ccc([C@@H]2CN(Cc3cncc(C)c3)CC[C@H]2NC(=O)Nc2ccc(Cl)cc2)nc1 (relative stereo) [Ex-64, trans-1-(4-chlorophenyl)-3-(3-(5-methoxypyridin-2-yl)-1-((5-methylpyridin-3-yl)methyl)piperidin-4-yl)urea]
2 | 0.09 | – | COc1ccc([C@@H]2CN(Cc3ccc(C4CC4)nc3)CC[C@H]2NC(=O)Nc2ccc(Cl)cc2)nc1 (relative stereo) [Ex-65, trans-1-(4-chlorophenyl)-3-[1-[(6-cyclopropylpyridin-3-yl)methyl]-3-(5-methoxypyridin-2-yl)piperidin-4-yl]urea]
3 | 0.2 | – | COc1ccc([C@@H]2CN(Cc3cnc(OC)nc3)CC[C@H]2NC(=O)Nc2ccc(Cl)cc2)nc1 (relative stereo) [Ex-66, trans-1-(4-chlorophenyl)-3-[3-(5-methoxypyridin-2-yl)-1-[(2-methoxypyrimidin-5-yl)methyl]piperidin-4-yl]urea]
4 | 0.08 | – | COc1ccc([C@@H]2CN(Cc3ccc(C)nc3)CC[C@H]2NC(=O)Nc2ccc(Cl)cc2)nc1 (relative stereo) [Ex-67, trans-1-(4-chlorophenyl)-3-[-3-(5-methoxypyridin-2-yl)-1-[(6-methylpyridin-3-yl)methyl]piperidin-4-yl]urea]
5 | 0.09 | – | COc1ccc([C@H]2CN(Cc3cncc(F)c3)CC[C@@H]2NC(=O)Nc2ccc(Cl)cc2)nc1 (relative stereo) [Ex-68, trans-(4-chlorophenyl)-3-[1-[(5-fluoropyridin-3-yl)methyl]-3-(5-methoxypyridin-2-yl)piperidin-4-yl]urea]
6 | 0.07 | – | COc1ccc([C@@H]2CN(Cc3cncc(Cl)c3)CC[C@H]2NC(=O)Nc2ccc(Cl)cc2)nc1 (relative stereo) [Ex-69, trans-1-(4-chlorophenyl)-3-[1-[(5-chloropyridin-3-yl)methyl]-3-(5-methoxypyridin-2-yl)piperidin-4-yl]urea]
7 | 2 | – | O=C(Nc1ccc(Cl)cc1)N[C@@H]1CCN(Cc2cncc(F)c2)C[C@H]1c1ccc(Cl)s1 (relative stereo) [Ex-70, trans-1-(4-chlorophenyl)-3-(3-(5-chlorothiophen-2-yl)-1-((5-fluoropyridin-3-yl)methyl)piperidin-4-yl)urea]
8 | 2 | – | O=C(Nc1ccc(Cl)cc1)N[C@@H]1CCN(Cc2cncc(Cl)c2)C[C@H]1c1ccc(Cl)s1 (relative stereo) [Ex-71, trans-1-(4-chlorophenyl)-3-(1-((5-chloropyridin-3-yl)methyl)-3-(5-chlorothiophen-2-yl)piperidin-4-yl)urea]
9 | 2 | – | Cc1cncc(CN2CC[C@@H](NC(=O)Nc3ccc(Cl)cc3)[C@H](c3ccc(Cl)s3)C2)c1 (relative stereo) [Ex-72, trans-1-(4-chlorophenyl)-3-(3-(5-chlorothiophen-2-yl)-1-((5-methylpyridin-3-yl)methyl)piperidin-4-yl)urea]
10 | 4 | – | O=C(Nc1ccc(Cl)cc1)N[C@@H]1CCN(Cc2ccc(C3CC3)nc2)C[C@H]1c1ccc(Cl)s1 (relative stereo) [Ex-73, trans-1-(4-chlorophenyl)-3-[3-(5-chlorothiophen-2-yl)-1-[(6-cyclopropylpyridin-3-yl)methyl]piperidin-4-yl]urea]
11 | 2 | – | O=C(Nc1ccc(Cl)cc1)N[C@@H]1CCN(Cc2ccc(C(F)(F)F)nc2)C[C@H]1c1ccc(Cl)s1 (relative stereo) [Ex-74, trans-1-(4-chlorophenyl)-3-[3-(5-chlorothiophen-2-yl)-1-{[6-(trifluoromethyl)pyridin-3-yl]methyl}piperidin-4-yl]urea]
12 | 3 | – | COc1ncc(CN2CC[C@@H](NC(=O)Nc3ccc(Cl)cc3)[C@H](c3ccc(Cl)s3)C2)cn1 (relative stereo) [Ex-75, trans-1-(4-chlorophenyl)-3-[3-(5-chlorothiophen-2-yl)-1-[(2-methoxypyrimidin-5-yl)methyl]piperidin-4-yl]urea]
13 | 2 | – | Cc1ncc(CN2CC[C@@H](NC(=O)Nc3ccc(Cl)cc3)[C@H](c3ccc(Cl)s3)C2)cn1 (relative stereo) [Ex-76, trans-1-(4-chlorophenyl)-3-[3-(5-chlorothiophen-2-yl)-1-[(2-methylpyrimidin-5-yl)methyl]piperidin-4-yl]urea]
14 | 23 | – | COCCC(=O)N1CC[C@@H](NC(=O)Nc2ccc(Cl)cc2)[C@H](c2ccc(OC)cn2)C1 (relative stereo) [Ex-79, trans-1-(4-chlorophenyl)-3-[5-methoxy-1'-(3-methoxy-propionyl)-1',2',3',4',5',6'-hexahydro-[2,3']bipyridinyl-4'-yl]-urea]
15 | 13 | – | COc1ccc([C@@H]2CN(C(=O)C3CCC(OC)CC3)CC[C@H]2NC(=O)Nc2ccc(Cl)cc2)nc1 (relative stereo) [Ex-81, trans-1-(4-chloro-phenyl)-3-[5-methoxy-1'-(4-methoxy-cyclohexanecarbonyl)-1',2',3',4',5',6'-hexahydro-[2,3']bipyridinyl-4'-yl]-urea]
16 | – | 19 | O=C(Nc1ccc(Cl)cc1)N[C@@H]1CCN(CC2CCOCC2)C[C@H]1c1ccc(Cl)s1 (relative stereo) [Ex-86, trans-1-(4-chlorophenyl)-3-(3-(5-chlorothiophen-2-yl)-1-((tetrahydro-2H-pyran-4-yl)methyl)piperidin-4-yl)urea]
17 | 1 | – | Cc1ccc(CN2CC[C@@H](NC(=O)Nc3ccc(Cl)cc3)[C@H](c3ccc(Cl)s3)C2)cn1 (relative stereo) [Ex-87, trans-1-(4-chlorophenyl)-3-[3-(5-chlorothiophen-2-yl)-1-[(6-methylpyridin-3-yl)methyl]piperidin-4-yl]urea]
18 | 1.2 | – | COc1ccc([C@@H]2CN(C(=O)C3CCNCC3)CC[C@H]2NC(=O)Nc2ccc(Cl)cc2)nc1 (relative stereo) [Ex-88, trans-1-(4-chloro-phenyl)-3-[5-methoxy-1'-(piperidine-4-carbonyl)-1',2',3',4',5',6'-hexahydro-[2,3']bipyridinyl-4'-yl]-urea]
19 | 32 | – | COc1ccc([C@@H]2CN(C(=O)C3CCC(O)CC3)CC[C@H]2NC(=O)Nc2ccc(Cl)cc2)nc1 (relative stereo) [Ex-90, trans-1-(4-chloro-phenyl)-3-[1'-(4-hydroxy-cyclohexanecarbonyl)-5-methoxy-1',2',3',4',5',6'-hexahydro-[2,3']bipyridinyl-4'-yl]-urea]
20 | 11 | – | COCCCN1CC[C@@H](NC(=O)Nc2ccc(Cl)cc2)[C@H](c2ccc(Cl)s2)C1 (relative stereo) [Ex-91, trans-1-(4-chloro-phenyl)-3-[3-(5-chloro-thiophen-2-yl)-1-(3-methoxy-propyl)-piperidin-4-yl]-urea]
21 | 4 | – | COc1ccc([C@@H]2CN(C(=O)C3COC3)CC[C@H]2NC(=O)Nc2ccc(Cl)cc2)nc1 (relative stereo) [Ex-92, trans-1-(4-chloro-phenyl)-3-[5-methoxy-1'-(oxetane-3-carbonyl)-1',2',3',4',5',6'-hexahydro-[2,3']bipyridinyl-4'-yl]-urea]

Reference: EP3789378A1, “PIPERIDINES OR PIPERIDONES SUBSTITUTED WITH UREA AND HETEROARYL” (Grünenthal GmbH, priority 2019, dated 2021)
